Legend:
[1] = test system: C57bl6j mice; test: Intestinal lipid (fat) absorption in mice fed a high fat diet; assay type: in vivo
Text: (§1) Adult male […] purchased at 8 week of age from Janvier Elevage (Le Genest-St-Isle, France) were individually housed and maintained ad libitum on high fat diet and water for 2 weeks. Seven mice were randomly allocated in 3 groups and fed with a high fat diet (lipids represented 50% of daily energy) during 2 weeks. For one kilogram, the composition of the high fat diet was: 235 g of casein, 201 g of saccharose, 3.5 g L-cystine, 85 g of starch, 116 g of maltodextrine, 60 g of cellulose, 12 g of vitamins mix, 51.5 g de mineral mix and 236 g of lard and 13 g of canola oil (UPAE, Jouy en Josas, France). Then, N-oleoyl-ethanolamide or (Z)-(R)-9-octadecenamide, N-(2-hydroxyethyl, 1-methyl) was added to the diet at the concentration of 100 mg/kg/bw. The mice are kept under treatment during 4 weeks. During the nutritional intervention, daily food intake has been monitored and the mice were weighted 3 times per week. During the last week of the experiment, the mice were kept during 5 days in metabolic cages to collect urine and feces. Lipids were extracted from feces after acidification using chloridric acid using chloroform/methanol (2:1 v/v) method. Total lipids were weighted, results were reported in mg of lipids per g of feces weight. Fat absorption was assessed using the following formula: Fat Absorption (% intake)=100*((Fat intake, g/d-fecal fat excretion, g/d)/fat intake). Example 1 was repeated except that N-oleoyl-ethanolamide as added to the diet at two different concentrations (0.1 or 1 g/kg/bw).

[2] = test system: C57bl6j mice; test: Lipid excretion in feces of mice fed a high fat diet; assay type: in vivo
Text: as §1

[3] = given orally in diet at 0.1 g/kg/bw (group C1 of Table 2), Example 2
[4] = given orally in diet at 100 mg/kg/bw, 4 weeks, Fat Absorption (% intake), Example 1
[5] = given orally in diet at 1 g/kg/bw (group C2 of Table 2), Example 2
[6] = given orally in diet at 100 mg/kg/bw, 4 weeks, feces collected over 5 days in last week, Example 1

SMILES	Intestinal Lipid Absorption (%) MV [1, 3] [%]	Intestinal Lipid Absorption (%) MV [1, 4] [%]	Intestinal Lipid Absorption (%) MV [1, 5] [%]	Lipid Excretion (mg/g of Feces) MV [2, 3]	Lipid Excretion (mg/g of Feces) MV [2, 6]	Lipid Excretion (mg/g of Feces) MV [2, 5]
CCCCCCCC/C=C\CCCCCCCC(=O)NCCO [C1, N-oleoyl-ethanolamide]	97.4	95.61	97.76	55.31 mg/g of Feces	53.7 mg/g of Feces	45.56 mg/g of Feces
CCCCCCCC/C=C\CCCCCCCC(=O)N[C@H](C)CO [C2, (Z)-(R)-9-octadecenamide, N-(2-hydroxyethyl,1-methyl)]		95.05			65.6 mg/g of Feces	
